Molecular target: T1, APOL1 (Homo sapiens, UniProt O14791)
T1 sequence (O14791 1-398): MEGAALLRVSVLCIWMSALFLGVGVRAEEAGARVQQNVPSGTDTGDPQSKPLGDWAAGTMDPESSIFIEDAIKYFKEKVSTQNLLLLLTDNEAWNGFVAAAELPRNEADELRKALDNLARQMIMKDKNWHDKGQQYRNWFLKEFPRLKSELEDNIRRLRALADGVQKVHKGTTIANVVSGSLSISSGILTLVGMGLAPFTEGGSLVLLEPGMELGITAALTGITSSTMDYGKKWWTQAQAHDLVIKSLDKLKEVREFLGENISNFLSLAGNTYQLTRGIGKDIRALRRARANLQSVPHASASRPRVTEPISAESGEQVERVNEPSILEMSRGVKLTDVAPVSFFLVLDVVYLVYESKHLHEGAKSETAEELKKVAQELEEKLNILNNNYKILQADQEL
Test: MultiTox-Fluor Multiplex Cytotoxicity Assay, tet-inducible APOL1 T-REx-HEK293 cells (G0, G1 or G2 clone not specified for Table 20)
Type: cell-based
Settings: tet-induced, 24 hours with compound, ratio of dead to live cells, read-out: IP50 (i.e., IC50 for cell proliferation)
Method: Human embryonic kidney (HEK293) cell lines containing a tet-inducible expression system (T-REx™; Invitrogen, Carlsbad, CA) and Adeno-associated virus site 1 pAAVS1-Puro-APOL1 G0 or pAAVS1-Puro-APOL1 G1 or pAAVS1-Puro-APOL1 G2 Clones G0 DC2.13, G1 DC3.25, and G2 DC4.44 were grown in a T-225 flask at ˜90% confluency in cell growth media (DMEM, 10% Tet-free FBS, 2 mM L-glutamine, 100 Units/mL penicillin-streptomycin, 5 μg/mL blasticidin S HCl, 1 μg/mL puromycin dihydrochloride). Cells were washed with DPBS and then trypsinized to dissociate from the flask. Media was used to quench the trypsin, cells were then pelleted at 200 g and resuspended in fresh cell assay media (DMEM, 2% Tet-free FBS, 2 mM L-glutamine, 100 Units/mL penicillin-streptomycin). Cells were counted and diluted to 1.17×10^6 cells/mL. 20 μL of cells (23,400/well) were dispensed in every well of a 384-well Poly-D-Lysine coated plate using the Multidrop dispenser. The plates were then incubated at room temperature for one hour.
Tetracycline is needed to induce APOL1 expression. 1 mg/mL tet stock in water was diluted to 250 ng/mL (5×) in cell assay media. 60 μL of cell assay media (no tet control) was dispensed in columns 1 and 24, and 60 μL of 5× tet in 384-PP-round bottom plate was dispensed in columns 2 to 23 with the Multidrop dispenser.
Assay ready plates from the Global Compound Archive were ordered using template 384_APOL1Cell_DR10n2_50 uM_v3. Compounds were dispensed at 200 nL in DMSO. The final top concentration was 10 μM with a 10 point 3-fold dilution in duplicate in the MultiTox assay.
20 μL was transferred from the 5× tet plate to the ARP and mixed, then 5 μL of 5× tet and the compounds were transferred to the cell plate and mixed using the Bravo. The cell plate was placed in the humidified 37° C. 5% CO2 incubator for 24 hours.
The MultiTox-Fluor Multiplex Cytotoxicity Assay was performed in accordance with the manufacturer's protocol. After cells were incubated with tet and compound for 24 hours, 25 μL of 1× MultiTox reagent was added to each well using the Multidrop dispenser; the plates were placed on a plate shaker (600 rpm) for 2 minutes, then centrifuged briefly and placed back in the 37° C. incubator for 30 minutes. The cell viability (excitation: 400 nm, emission: 486 nm) and cytotoxicity (excitation: 485 nm, emission: 535 nm) were read using the EnVision plate reader. A ratio of dead (cytotoxicity) to live (viability) cells was reported. Data was exported and analyzed in Genedata. Data was normalized using percent of control, no tet (100% viability), and 50 ng/mL tet treated (0% viability), and fit using Smart Fit settings in Genedata.

Structure (SMILES)	IC50
NC(=O)C1OC2(CCN(Cc3cc(C4CC4)[nH]n3)CC2)c2cc(Cl)ccc21 (stereo not shown) [Compound 242]	0.05 to 0.5 µM
CS(=O)(=O)CCn1cc(CN2CCC3(CC2)C(=O)Nc2ccc(F)cc23)cn1 [Compound 21]	≥ 0.5 µM
C[C@H]1C[C@@]2(CCN1Cc1cnn(CCS(C)(=O)=O)c1)OCC(F)(F)c1ccc(Cl)cc12 [Compound 135]	≤ 0.05 µM
NC(=O)C1OC2(CCN(Cc3cnn(CC4(O)CCS(=O)(=O)CC4)c3)CC2)c2cc(Cl)ccc21 (stereo not shown) [Compound 282]	≤ 0.05 µM
NC(=O)C1OC2(CCN(Cc3cnn(C4CC4)c3N)CC2)c2cc(Cl)ccc21 (stereo not shown) [Compound 257]	0.05 to 0.5 µM
CN1C(=O)C2(CCN(Cc3cnn(CC(O)C(F)(F)F)c3)CC2)c2cc(Cl)ccc21 (stereo not shown) [Compound 53]	0.05 to 0.5 µM
CNC(=O)C1OC2(CCN(Cc3cnn(-c4ccccc4)c3)CC2)c2cc(C(F)(F)F)ccc21 (stereo not shown) [Compound 199]	0.05 to 0.5 µM
C[C@H]1C[C@@]2(CCN1Cc1cnn(C(F)F)c1)OCCc1ccc(Cl)cc12 [Compound 122]	≤ 0.05 µM
C[C@H]1C[C@@]2(CCN1Cc1ncc[nH]1)OCCc1ccc(Cl)cc12 [Compound 110]	0.05 to 0.5 µM
Cc1ncc(CN2CC[C@]3(C[C@@H]2C)OCCc2ccc(Cl)cc23)cn1 [Compound 112]	≤ 0.05 µM
O=C1Nc2ccc(Cl)cc2C12CCN(Cc1cn[nH]c1)CC2 [Compound 11]	0.05 to 0.5 µM
Cc1cc(C(=O)N[C@H]2C[C@H](Cn3cc(CN4CCC5(CC4)C(=O)N(C)c4ccc(Cl)cc45)cn3)C2)on1 [Compound 70]	≥ 0.5 µM
Cc1n[nH]c(C(F)(F)Cn2cc(CN3CC[C@]4(C[C@@H]3C)OCCc3ccc(Cl)cc34)nn2)n1 [Compound 168]	0.05 to 0.5 µM
O=C1Nc2ccc(Cl)cc2C12CCN(Cc1cnn(CCO)c1)CC2 [Compound 4]	≥ 0.5 µM
Cc1ccc2c(c1)C1(CCN(Cc3cnn(-c4ccccc4)c3)CC1)OC2C(N)=O (stereo not shown) [Compound 196]	≤ 0.05 µM
C[C@H]1C[C@@]2(CCN1Cc1cn(C)cn1)OCCc1ccc(Cl)cc12 [Compound 108]	≥ 0.5 µM
CN1C(=O)C2(CCN(Cc3cnn(CC(C)(C)O)c3)CC2)c2cc(Cl)ccc21 [Compound 52, 5-chloro-1′-[[1-(2-hydroxy-2-methyl-propyl)pyrazol-4-yl]methyl]-1-methyl-spiro[indoline-3,4′-piperidine]-2-one]	≤ 0.05 µM
C[C@H]1C[C@@]2(CCN1Cc1cn(CC(O)C(C)(C)O)nn1)OCCc1ccc(Cl)cc12 (stereo partly shown) [Compound 143]	≤ 0.05 µM
Cn1cc(CN2CCC3(CCc4ccc(Cl)cc43)CC2)cn1 [Compound 310, 6-chloro-1′-[(1-methylpyrazol-4-yl)methyl]spiro[indane-1,4′-piperidine]]	≥ 0.5 µM
CC(C)(CO)Nc1ncc(CN2CCC3(CC2)C(=O)Nc2ccc(Cl)cc23)cn1 [Compound 10]	0.05 to 0.5 µM
C[C@H]1C[C@@]2(CCN1Cc1cn(CC(C)(C)CS(N)(=O)=O)nn1)OCCc1ccc(Cl)cc12 [Compound 158]	≤ 0.05 µM
Cc1c(CN2CCC3(CC2)OC(C(N)=O)c2ccc(Cl)cc23)cnn1-c1ccccc1 (stereo not shown) [Compound 213]	0.05 to 0.5 µM
Cc1ccc2c(c1)C1(CCN(Cc3cnn(CCO)c3)CC1)C(=O)N2 [Compound 26]	≥ 0.5 µM
Cc1ccc2c(c1)[C@]1(CCN(Cc3cn[nH]c3)[C@@H](C)C1)OCC2 [Compound 96]	≤ 0.05 µM
C[C@H]1C[C@@]2(CCN1Cc1cn(Cc3nccn(C)c3=O)nn1)OCCc1ccc(Cl)cc12 [Compound 176]	0.05 to 0.5 µM

Structure (SMILES)	IC50
Cc1ccc2c(c1)C1(CCN(Cc3cn[nH]c3)[C@@H](C)C1)OCC2 (stereo partly shown) [Compound 97]	≥ 0.5 µM
CN1C(=O)C2(CCN(Cc3cnn(C[C@H]4C[C@@H](NS(=O)(=O)C5CC5)C4)c3)CC2)c2cc(Cl)ccc21 [Compound 65]	≥ 0.5 µM
CCNC(=O)NCCn1cc(CN2CC[C@]3(C[C@@H]2C)OCCc2ccc(Cl)cc23)nn1 [Compound 173]	≤ 0.05 µM
C[C@H]1C[C@@]2(CCN1Cc1ccc3c(c1)n(C)c(=O)n3C)OCCc1ccc(Cl)cc12 [Compound 107]	≤ 0.05 µM
Cc1nnc(O)c(Cn2cc(CN3CC[C@]4(C[C@@H]3C)OCCc3ccc(Cl)cc34)nn2)c1C [Compound 178]	0.05 to 0.5 µM
NC(=O)C1OC2(CCN(Cc3cn[nH]c3)CC2)c2cc(Cl)ccc21 (stereo not shown) [Compound 226, 5-chloro-1′-(1H-pyrazol-4-ylmethyl)spiro[1H-isobenzofuran-3,4′-piperidine]-1-carboxamide]	≤ 0.05 µM
NC(=O)C1OC2(CCN(Cc3cncnc3)CC2)c2cc(Cl)ccc21 (stereo not shown) [Compound 252]	≥ 0.5 µM
CN1C(=O)C2(CCN(Cc3cnn(CCO)c3)CC2)c2cc(Cl)ccc21 [Compound 55]	≥ 0.5 µM
CNC(=O)C1OC2(CCN(Cc3cnn(-c4ccccc4)c3)[C@@H](C)C2)c2cc(Cl)ccc21 (single isomer, unassigned) [Compound 294, (2′S)-5-chloro-N,2′-dimethyl-1′-[(1-phenylpyrazol-4-yl)methyl]spiro[1H-isobenzofuran-3,4′-piperidine]-1-carboxamide]	≥ 0.5 µM
O=C1Nc2ccc(Cl)cc2C12CCN(Cc1ccc(OC(F)F)cc1)CC2 [Compound 19]	≥ 0.5 µM
C[C@H]1C[C@@]2(CCN1Cc1cn(Cc3nc(CO)cs3)nn1)OCCc1ccc(Cl)cc12 [Compound 164]	0.05 to 0.5 µM
CC(O)Cn1cc(CN2CC[C@]3(C[C@@H]2C)OCCc2ccc(Cl)cc23)nn1 (stereo partly shown) [Compound 144]	≤ 0.05 µM
C[C@H]1C[C@@]2(CCN1Cc1cnn(CCS(C)(=O)=O)c1)C(=O)N(C)c1ccc(Cl)cc12 [Compound 80, (2′S,3R)-5-chloro-1,2′-dimethyl-1′-[[1-(2-methylsulfonylethyl)pyrazol-4-yl]methyl]spiro[indoline-3,4′-piperidine]-2-one trifluoracetic acid]	≤ 0.05 µM
Cc1c(CN2CCC3(CC2)OC(C(N)=O)c2ccc(Cl)cc23)cnn1C (stereo not shown) [Compound 275]	≥ 0.5 µM
CS(=O)(=O)CCn1cc(CN2CCC3(CC2)OC(C(N)=O)c2ccc(C(F)(F)F)cc23)nn1 (stereo not shown) [Compound 207, 1′-[[1-(2-methylsulfonylethyl)triazol-4-yl]methyl]-5-(trifluoromethyl)spiro[1H-isobenzofuran-3,4′-piperidine]-1-carboxamide]	≥ 0.5 µM
CN(C)C(=O)Cn1cc(CN2CCC3(CC2)OC(C(N)=O)c2ccc(Cl)cc23)cn1 (stereo not shown) [Compound 284]	0.05 to 0.5 µM
NC(=O)C1OC2(CCN(Cc3cnn(CC(O)C4(O)CCC4)c3)CC2)c2cc(Cl)ccc21 (stereo not shown) [Compound 280, 5-chloro-1′-[[1-[2-hydroxy-2-(1-hydroxycyclobutyl)ethyl]pyrazol-4-yl]methyl]spiro[1H-isobenzofuran-3,4′-piperidine]-1-carboxamide]	≤ 0.05 µM
NC(=O)c1cccc(CN2CCC3(CC2)OC(C(N)=O)c2ccc(Cl)cc23)c1F (stereo not shown) [Compound 240]	≥ 0.5 µM
COc1ccc(CN2CCC3(CC2)C(=O)Nc2ccc(Cl)cc23)cc1F [Compound 8]	0.05 to 0.5 µM
Cn1cc(CN2CCC3(CC2)OC(C(N)=O)c2ccc(Cl)cc23)cn1 (stereo not shown) [Compound 216]	≤ 0.05 µM
C[C@H]1C[C@@]2(CCN1Cc1cn(C3CN(S(C)(=O)=O)C3)nn1)OCCc1ccc(Cl)cc12 [Compound 150]	≤ 0.05 µM
Cc1ccc2c(c1)C1(CCN(Cc3ccc(OCC(C)(C)N)nc3)CC1)OC2(C)C [Compound 288, 2-methyl-1-[[5-[(1,1,5-trimethylspiro[isobenzofuran-3,4′-piperidine]-1′-yl)methyl]-2-pyridyl]oxy]propan-2-amine]	0.05 to 0.5 µM
CC(C)Oc1ccc(CN2CCC3(CC2)C(=O)Nc2ccc(Cl)cc23)cc1 [Compound 7]	0.05 to 0.5 µM
Cc1ncc(CN2CCC3(CC2)OC(C(N)=O)c2ccc(Cl)cc23)cn1 (stereo not shown) [Compound 215]	≥ 0.5 µM

Source: patent publication US20250195483A1, “SPIRO PIPERIDINE DERIVATIVES AS INHIBITORS OF APOL1 AND METHODS OF USING SAME” (Vertex Pharmaceuticals Incorporated, priority 2022, published 2025)
